# Columns and labels:
# [1] = Carrageenin induced paw edema in rats (acute anti-inflammatory activity); assay type: in vivo, Royal Hart, Wistar strain rats; conditions: 250 mg./kg. by gavage; 5 hours after drug (4 hours after carrageenin); ratio greater than 1.41 is active
# Experimental: In determining the acute anti-inflammatory activity of the cis-2-benzoyl-3-hydroxy-2-alkenonitriles of the present invention, Royal Hart, Wistar strain rats, ranging in weight from 80 to 90 grams were used. The rats were fasted overnight prior to dosing but had free access to water. The test compounds were administered in aqueous suspension, by gavage, in a volume of 1.7 ml. per 50 grams of rat [corresponds to hydration volume used by Winter, et al., Proc. Soc. […] The phlogistic agent used was carrageenin prepared as a sterile 1% suspension in 0.9% aqueous sodium chloride for routine testing. A volume of 0.05 ml. was injected through a 26 gauge needle into the plantar tissue of the right hind paw. Measurements were made 5 hours after drug administration (4 hours after carrageenin challenge). Volumes of both the normal and carrageenin inflammed feet were determined. The difference between the two measurements is considered to be the increased edema due to the carrageenin administration.
# [2] = Adjuvant induced arthritis in rats (Freund's adjuvant); assay type: in vivo, Royal Hart, Wistar strain rats; conditions: for Dead/Treated At 21 Days: days 0-13
# Experimental: Groups of three Royal Hart, Wistar strain rats weighing 200±10 grams each were injected intradermally in the right hind paw with Freund's adjuvant (dried human tubercle bacilli in a mineral oil vehicle) at a dose of 2 mg./kg. of body weight. Test compound was administered orally in a 1.5% starch vehicle at various doses once daily on days 0 through 13 post challenge. Control rats were treated in a similar manner, but given only starch vehicle. On the 14th and 21st day post challenge the diameter of the injected paw (primary lesion) was measured by micrometer caliper. The volume of inflamed paws were estimated from these measurements and the results are expressed as percent inhibition of swelling as compared to controls. At the same time, the other inflamed sites, such as ears, paws and tail (seconday lesions) were observed and each rat was graded as to degree of inflammation and swelling present. The grading is based on a scale of 0 to 24, where 0 represents a complete absence of induced arthritic nodules and 24 represents the maximum degree of inflammation. The mean grade for each treated group is calculated and the effects of each compound are expressed as percent inhibition of the control grade. Table I records the results of tests conducted with a typical compound of the present invention and known anti-inflammatory agents.
# [3] = Ultraviolet induced erythema in guinea pigs; assay type: in vivo, Albino guinea pigs; set-up: key: sum of 3 sites, each 0 = none, 0.5 = faint, 1.0 = distinct; max 3.0; conditions: maximum 3.0
# Experimental: Albino guinea pigs were depilitated on their flanks, the evening before testing, with a standard mixture of barium sulfide and gum acacia. On the morning of the test, groups of four guinea pigs were dosed by gavage one hour prior (-1 hour) to ultraviolet exposure. At 0 hour they were restrained in a plastic container which allows exposure of 3 circular spots. They were then exposed to ultraviolet irradiation from a "Hanovia" Kromayer lamp, model 10, for 60 seconds. At one and four hours, the degree of erythema for each of the three sites was assessed according to the following scoring system: 0= no erythema, 0.5=incomplete circle or faint erythema, and 1.0=complete circle of distinct erythema. Thus, the maximum score for each animal was 3.0.
smiles,measurement,setting,value
CC(=O)Oc1ccccc1C(=O)O [Aspirin],C/T Edema Ratio,[1],2.8
same,% Inhibition of Control Grade (secondary lesion),"[2]; oral 50 mg./kg., Day 14",12%
same,% Inhibition of Swelling (primary lesion),"[2]; oral 50 mg./kg., Day 14",23%
same,Mean Weight Gain,"[2]; oral 50 mg./kg., Day 14",56 grams
same,% Inhibition of Control Grade (secondary lesion),"[2]; oral 50 mg./kg., Day 21",9%
same,% Inhibition of Swelling (primary lesion),"[2]; oral 50 mg./kg., Day 21",3%
same,Mean Weight Gain,"[2]; oral 50 mg./kg., Day 21",44 grams
same,Dead/Treated At 21 Days,[2]; oral 50 mg./kg.,2/21
same,% Inhibition of Control Grade (secondary lesion),"[2]; oral 100 mg./kg., Day 14",19%
same,% Inhibition of Swelling (primary lesion),"[2]; oral 100 mg./kg., Day 14",36%
same,Mean Weight Gain,"[2]; oral 100 mg./kg., Day 14",48 grams
same,% Inhibition of Control Grade (secondary lesion),"[2]; oral 100 mg./kg., Day 21",8%
same,% Inhibition of Swelling (primary lesion),"[2]; oral 100 mg./kg., Day 21",13%
same,Mean Weight Gain,"[2]; oral 100 mg./kg., Day 21",53 grams
same,Dead/Treated At 21 Days,[2]; oral 100 mg./kg.,18/63
same,% Inhibition of Control Grade (secondary lesion),"[2]; oral 200 mg./kg., Day 14",26%
same,% Inhibition of Swelling (primary lesion),"[2]; oral 200 mg./kg., Day 14",48%
same,Mean Weight Gain,"[2]; oral 200 mg./kg., Day 14",40 grams
same,% Inhibition of Control Grade (secondary lesion),"[2]; oral 200 mg./kg., Day 21",17%
same,% Inhibition of Swelling (primary lesion),"[2]; oral 200 mg./kg., Day 21",27%
same,Mean Weight Gain,"[2]; oral 200 mg./kg., Day 21",44 grams
same,Dead/Treated At 21 Days,[2]; oral 200 mg./kg.,10/66
same,% Inhibition of Control Grade (secondary lesion),"[2]; oral 400 mg./kg., Day 14",58%
same,% Inhibition of Swelling (primary lesion),"[2]; oral 400 mg./kg., Day 14",73%
same,Mean Weight Gain,"[2]; oral 400 mg./kg., Day 14",41 grams
same,% Inhibition of Control Grade (secondary lesion),"[2]; oral 400 mg./kg., Day 21",45%
same,% Inhibition of Swelling (primary lesion),"[2]; oral 400 mg./kg., Day 21",48%
same,Mean Weight Gain,"[2]; oral 400 mg./kg., Day 21",55 grams
same,Dead/Treated At 21 Days,[2]; oral 400 mg./kg.,18/57
same,Erythema Score (avg.),"[3]; oral 31.3 mg./kg., 1 hour",1.2
same,Erythema Score (avg.),"[3]; oral 31.3 mg./kg., 4 hours",2.3
same,Erythema Score (avg.),"[3]; oral 62.5 mg./kg., 1 hour",0.8
same,Erythema Score (avg.),"[3]; oral 62.5 mg./kg., 4 hours",2.0
same,Erythema Score (avg.),"[3]; oral 125 mg./kg., 1 hour",0.1
same,Erythema Score (avg.),"[3]; oral 125 mg./kg., 4 hours",2.0
same,Erythema Score (avg.),"[3]; oral 250 mg./kg., 1 hour",0.1
same,Erythema Score (avg.),"[3]; oral 250 mg./kg., 4 hours",1.2
CCCCC1C(=O)N(c2ccccc2)N(c2ccccc2)C1=O [Phenylbutazone],C/T Edema Ratio,[1],2.3
same,% Inhibition of Control Grade (secondary lesion),"[2]; oral 18.8 mg./kg., Day 14",4%
same,% Inhibition of Swelling (primary lesion),"[2]; oral 18.8 mg./kg., Day 14",31%
same,Mean Weight Gain,"[2]; oral 18.8 mg./kg., Day 14",50 grams
same,% Inhibition of Control Grade (secondary lesion),"[2]; oral 18.8 mg./kg., Day 21",8%
same,% Inhibition of Swelling (primary lesion),"[2]; oral 18.8 mg./kg., Day 21",7%
same,Mean Weight Gain,"[2]; oral 18.8 mg./kg., Day 21",45 grams
same,Dead/Treated At 21 Days,[2]; oral 18.8 mg./kg.,2/21
same,% Inhibition of Control Grade (secondary lesion),"[2]; oral 37.5 mg./kg., Day 14",18%
same,% Inhibition of Swelling (primary lesion),"[2]; oral 37.5 mg./kg., Day 14",56%
same,Mean Weight Gain,"[2]; oral 37.5 mg./kg., Day 14",53 grams
same,% Inhibition of Control Grade (secondary lesion),"[2]; oral 37.5 mg./kg., Day 21",13%
same,% Inhibition of Swelling (primary lesion),"[2]; oral 37.5 mg./kg., Day 21",14%
same,Mean Weight Gain,"[2]; oral 37.5 mg./kg., Day 21",53 grams
same,Dead/Treated At 21 Days,[2]; oral 37.5 mg./kg.,5/39
same,% Inhibition of Control Grade (secondary lesion),"[2]; oral 75 mg./kg., Day 14",27%
same,% Inhibition of Swelling (primary lesion),"[2]; oral 75 mg./kg., Day 14",62%
same,Mean Weight Gain,"[2]; oral 75 mg./kg., Day 14",51 grams
same,% Inhibition of Control Grade (secondary lesion),"[2]; oral 75 mg./kg., Day 21",15%
same,% Inhibition of Swelling (primary lesion),"[2]; oral 75 mg./kg., Day 21",28%
same,Mean Weight Gain,"[2]; oral 75 mg./kg., Day 21",50 grams
same,Dead/Treated At 21 Days,[2]; oral 75 mg./kg.,2/39
same,% Inhibition of Control Grade (secondary lesion),"[2]; oral 150 mg./kg., Day 14",54%
same,% Inhibition of Swelling (primary lesion),"[2]; oral 150 mg./kg., Day 14",75%
same,Mean Weight Gain,"[2]; oral 150 mg./kg., Day 14",40 grams
same,% Inhibition of Control Grade (secondary lesion),"[2]; oral 150 mg./kg., Day 21",31%
same,% Inhibition of Swelling (primary lesion),"[2]; oral 150 mg./kg., Day 21",44%
same,Mean Weight Gain,"[2]; oral 150 mg./kg., Day 21",50 grams
same,Dead/Treated At 21 Days,[2]; oral 150 mg./kg.,2/27
same,Erythema Score (avg.),"[3]; oral 7.8 mg./kg., 1 hour",1.1
same,Erythema Score (avg.),"[3]; oral 7.8 mg./kg., 4 hours",2.9
same,Erythema Score (avg.),"[3]; oral 15.6 mg./kg., 1 hour",0.4
same,Erythema Score (avg.),"[3]; oral 15.6 mg./kg., 4 hours",2.3
same,Erythema Score (avg.),"[3]; oral 31.3 mg./kg., 1 hour",0.4
same,Erythema Score (avg.),"[3]; oral 31.3 mg./kg., 4 hours",1.7
same,Erythema Score (avg.),"[3]; oral 62.5 mg./kg., 1 hour",0.3
same,Erythema Score (avg.),"[3]; oral 62.5 mg./kg., 4 hours",0.9
same,Erythema Score (avg.),"[3]; oral 125 mg./kg., 1 hour",0.1
same,Erythema Score (avg.),"[3]; oral 125 mg./kg., 4 hours",1.1
same,Erythema Score (avg.),"[3]; oral 250 mg./kg., 1 hour",0
same,Erythema Score (avg.),"[3]; oral 250 mg./kg., 4 hours",0.5
